From patent US10800726B2, “Rexinoid compounds and methods of using rexinoid compounds for treating metabolic disorders and cancer” (THE UAB RESEARCH FOUNDATION, priority 2014, dated 2020)

Experiments:
[1] = Serum triglyceride, cholesterol and free fatty acids in high fat diet fed mice; type: in vivo, C57BL/6J mice
From the text: (§1) Twelve C57BL/6J mice were randomly divided into two groups, namely high fat diet (HFD) (60% of calories from fat) fed with or without Compound UAB126 (1.5 g/kg food) for 10 weeks.
Previously developed rexinoids have the adverse side effect of elevating serum triglyceride (TG) level. […] Thus, Compound UAB126 can regulate lipid metabolism.

[2] = High fat diet-induced obesity: body weight, body composition (QMR), food intake; type: in vivo, C57BL/6J mice
From the text: as §1
(§2) Also, fasting glucose levels in mice fed HFD with Compound UAB126 were lower than mice fed HFD (FIG. 5). […] Food intake was not different between the 2 groups.

[3] = Glucose tolerance, insulin sensitivity and fasting glucose in high fat diet fed mice; type: in vivo, C57BL/6J mice; conditions: HFD with compound
From the text: as §1, §2

[4] = tested on: estrogen-negative mammary cancers; experiment: DMBA-induced mammary carcinogenesis in transgenic erbB2+/− mice; type: in vivo; conditions: orally administered, female transgenic erbB2+/− mice, vs control mice, FIG. 1
From the text: FIG. 1 is a graph showing the efficacy of 9-cis-UAB30, TARGRETIN, Compound UAB125, and Compound UAB126 in preventing the formation of mammary cancers in ErbB2^+/− female mice. The first bar represents the controls for 9-cis-UAB30 and TARGRETIN. The fourth bar represents the controls for UAB125 and UAB126.
Mammary carcinogenesis was induced in female, transgenic erbB2^+/− mice using 7,12-Dimethylbenz[a]anthracene (DMBA). The mice were orally administered 9-cis-UAB30 (a tissue selective rexinoid), TARGRETIN® (Valeant Pharmaceuticals, West Laurel, Calif.) (i.e., bexarotene, which is a potent RXR agonist), UAB125, or UAB126. The control mice were not administered any compounds. […] Specifically, UAB125 and UAB126 prevented the formation of 68% and 79%, respectively, of the estrogen-negative mammary cancers, while 9-cis-UAB30 and TARGRETIN® prevented only 54% and 65%, respectively.

[5] = QMR, normalized by body weight, FIG. 6B
[6] = QMR, without normalization, FIG. 6A

In the case of `O=C(O)C=Cc1ccc(-c2cccc3ccccc23)cc1` (single isomer, unassigned) [UAB126, 3-(4-(1-naphthyl)phenyl)propenoic acid], the serum triglyceride levels ([1]; HFD with compound vs HFD, FIG. 7) is reported as “significantly reduced”, the serum cholesterol ([1]; compared to HFD vehicle treated mice, FIG. 8A) is reported as “significantly decreased” and the “serum free fatty acids (FFA)” value ([1]; compared to HFD vehicle treated mice, FIG. 8B) is reported as “significantly decreased”. The “final body weight (avg.)” value ([2]; HFD (60% of calories from fat) with compound 1.5 g/kg food, 10 weeks, avg. initial 22.5 g, HFD alone: initial 23 g, final 40 g, FIG. 2) was 27.8 g, the “body weight gain compared to HFD fed mice without compound” value ([2]; HFD with compound 1.5 g/kg food, 10 weeks, FIG. 2) was “gained less body weight” and the “fat mass normalized by body weight, compared to HFD fed mice” value [2, 5] was “less fat mass”. The “lean mass normalized by body weight, compared to HFD fed mice” value [2, 5] was “more lean mass”, the fat mass [2, 6] was “markedly reduced” and the lean mass [2, 6] was “slightly reduced”. The “glucose tolerance vs mice fed HFD alone” value ([3]; FIG. 3) was “more glucose tolerant”, the “insulin sensitivity vs mice fed HFD alone” value ([3]; FIG. 4) was “insulin sensitive” and the “fasting glucose levels vs mice fed HFD” value ([3]; FIG. 5) was “lower”. For the same compound, the “prevention of formation of estrogen-negative mammary cancers” value (“prevention” below) [4] was 79%.

For `CC(=C/C=C/C(C)=C/C(=O)O)/C=C1\CCCc2ccccc21` [Compound 9-cis-UAB30, reference compound], the “prevention” value [4] was 54%.

With `Cc1ccc(-c2cccc(C=CC(=O)O)c2)c2ccccc12` (single isomer, unassigned) [UAB125, 3-(3-(4-methyl-1-naphthyl)phenyl)propenoic acid] the “prevention” value [4] was 68%.

With `C=C(c1ccc(C(=O)O)cc1)c1cc2c(cc1C)C(C)(C)CCC2(C)C` [TARGRETIN, bexarotene, reference compound] the “prevention” value [4] was 65%.
